Measurements: US12435108B2, “Teixobactin analogue and use thereof” (SUNSHINE LAKE PHARMA CO., LTD., priority 2019, dated 2025)

Assays:
VRE (ATCC700221) = conditions: ATCC700221
Experimental: (§1) For the determination of the minimum inhibitory concentration (MIC), according to the CLSI standard, the minimum inhibitory concentration of 3 ATCC standard strains (2 strains of Staphylococcus aureus and 1 strain of Enterococcus faecium) was tested by two independent repeated experiments. Compounds were diluted two-fold in a 96-well plate from the highest detection concentration of 64 μg/mL. The test plate was placed in a common incubator and incubated at 35±2° C. for 20-24 hours. The growth of bacteria in the wells was observed and recorded. Inoculation method: 5-10 bacterial single colonies from the solid medium plate resuspended in 500 μL of 1.02×CAMHB, and then OD600 was adjusted to 0.1-0.15 with a spectrophotometer; then the bacteria were diluted 300-fold with 1.02×CAMHB to ˜2×10^5 CFU/ml (stepwise dilution, first 10-fold and then 30-fold), and the prepared bacterial inoculum was inoculated in 96-well plate within 15 minutes, the number of inoculated bacteria could be obtained by plate count. Colony count: the inoculated bacteria was diluted with liquid medium from 10^−1 to 10^−3 (such as 100 μL of bacterial inoculum+900 μL of 1.02×CAMHB); 100 μl of the above bacterial dilution was evenly spread on a TSA or TSA II plate, with 2 replicates per dilution. After the medium was absorbed by TSA or TSA II for 10 minutes, the plate was inverted and cultured at 35±2° C. for 24 hours in an incubator. Record of minimum inhibitory concentration and statistics of colony count: the minimum inhibitory concentration of each compound was recorded referring to the CLSI standard; the number of colonies of bacterial inoculum of different dilutions on the TSA or TSA II plate was counted and the amount of bacterial inoculation was calculated. Selection of strain types: MRSA (ATCC43300), MSSA (ATCC29213) and VRE (ATCC700221).

MRSA (ATCC43300) = conditions: ATCC43300
Experimental: as §1

MSSA (ATCC29213) = conditions: ATCC29213
Experimental: as §1

| SMILES | In vitro antibacterial activity MIC, VRE(ATCC700221) (VRE (ATCC700221)) | In vitro antibacterial activity MIC, MRSA(ATCC43300) (MRSA (ATCC43300)) | In vitro antibacterial activity MIC, MSSA(ATCC29213) (MSSA (ATCC29213)) |
| --- | --- | --- | --- |
| C=C[C@H]1C[C@]12NC(=O)[C@H](C)NC(=O)[C@H](NC(=O)[C@H](CO)NC(=O)[C@@H](NC(=O)[C@H](NC(=O)[C@@H](CCC(N)=O)NC(=O)[C@H](CO)NC(=O)[C@@H](NC(=O)[C@@H](Cc1ccc(-c3ccccc3)cc1)NC)[C@@H](C)CC)[C@@H](C)CC)[C@@H](C)CC)[C@H](C)OC(=O)[C@H]([C@@H](C)CC)NC2=O.O=C(O)C(F)(F)F [Example 20] | 4 mg/L | 4 mg/L | 4 mg/L |
| CC[C@H](C)[C@H](NC(=O)[C@@H](Cc1ccc(-c2ccc(-c3ccccc3)cc2)cc1)NC)C(=O)N[C@@H](CO)C(=O)N[C@H](CCC(N)=O)C(=O)N[C@@H](C(=O)N[C@H](C(=O)N[C@@H](CO)C(=O)N[C@H]1C(=O)N[C@@H](C)C(=O)NC2(CC2)C(=O)N[C@@H]([C@@H](C)CC)C(=O)O[C@H]1C)[C@@H](C)CC)[C@@H](C)CC.O=C(O)C(F)(F)F [Example 21] | 8 mg/L | 8 mg/L | 8 mg/L |
| C=C[C@H]1C[C@]12NC(=O)[C@H](C)NC(=O)[C@H](NC(=O)[C@H](CO)NC(=O)[C@@H](NC(=O)[C@H](NC(=O)[C@@H](CCC(N)=O)NC(=O)[C@H](CO)NC(=O)[C@@H](NC(=O)[C@@H](Cc1ccc3ccccc3c1)NC)[C@@H](C)CC)[C@@H](C)CC)[C@@H](C)CC)[C@H](C)OC(=O)[C@H]([C@@H](C)CC)NC2=O.O=C(O)C(F)(F)F [Example 22] | 4 mg/L | 2 mg/L | 2 mg/L |
| CC[C@H](C)[C@H](NC(=O)[C@@H](Cc1ccc2ccccc2c1)NC)C(=O)N[C@@H](CO)C(=O)N[C@H](CCC(N)=O)C(=O)N[C@@H](C(=O)N[C@H](C(=O)N[C@@H](CO)C(=O)N[C@H]1C(=O)N[C@@H](C)C(=O)NC2(CC2)C(=O)N[C@@H]([C@@H](C)CC)C(=O)O[C@H]1C)[C@@H](C)CC)[C@@H](C)CC.O=C(O)C(F)(F)F [Example 23] | 4 mg/L | 2 mg/L | 4 mg/L |
| CC[C@H](C)[C@H](NC(=O)[C@@H](Cc1ccc2ccccc2c1)NC)C(=O)N[C@@H](CO)C(=O)N[C@H](CCC(N)=O)C(=O)N[C@@H](C(=O)N[C@H](C(=O)N[C@@H](CO)C(=O)N[C@H]1C(=O)N[C@@H](C)C(=O)NC2(CCCCCC2)C(=O)N[C@@H]([C@@H](C)CC)C(=O)O[C@H]1C)[C@@H](C)CC)[C@@H](C)CC.O=C(O)C(F)(F)F [Example 24] | 4 mg/L | 4 mg/L | 4 mg/L |
| CC[C@H](C)[C@H](NC(=O)[C@@H](Cc1ccc(-c2ccc(Oc3ccccc3)cc2)cc1)NC)C(=O)N[C@@H](CO)C(=O)N[C@H](CCC(N)=O)C(=O)N[C@@H](C(=O)N[C@H](C(=O)N[C@@H](CO)C(=O)N[C@H]1C(=O)N[C@@H](C)C(=O)NC2(CC2)C(=O)N[C@@H]([C@@H](C)CC)C(=O)O[C@H]1C)[C@@H](C)CC)[C@@H](C)CC.O=C(O)C(F)(F)F [Example 25] | 4 mg/L | 4 mg/L | 4 mg/L |
